PubChem BioAssay (NCI)
Several values for one entry are separate records, joined by “and”; a condition that tells them apart may be missing. Equal values may be shown once.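 How tested: cells in 96-well plates exposed to compound for 48 hours at five concentrations. At the GI50, growth is halved. TGI marks complete inhibition of growth.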

How the values were obtained:
Test in all cases: NCI anticancer screen, dose series, 48 h
NCI-H460 lung = tested on: NCI-H460 lung
SF-539 CNS = tested on: SF-539 CNS
SW-620 colon = tested on: SW-620 colon
LXFL 529 NSCLC = tested on: LXFL 529 NSCLC
UO-31 renal = tested on: UO-31 renal
SF-295 CNS = tested on: SF-295 CNS
DMS 114 small cell lung = tested on: DMS 114 small cell lung
XF 498 CNS = tested on: XF 498 CNS

Row | Structure (SMILES) | TGI (NCI-H460 lung) | TGI (SF-539 CNS) | TGI (SW-620 colon) | TGI (LXFL 529 NSCLC) | TGI (UO-31 renal) | TGI (SF-295 CNS) | TGI (DMS 114 small cell lung) | TGI (XF 498 CNS) | GI50 (NCI-H460 lung) | GI50 (SF-539 CNS) | GI50 (SW-620 colon) | GI50 (LXFL 529 NSCLC) | GI50 (UO-31 renal) | GI50 (SF-295 CNS) | GI50 (XF 498 CNS)
1 | CC(C)(C)C1=NO[C@H]2[C@@H](NC(=O)c3ccccc3)CC[C@@H]12 | > 100 µM | > 100 µM | > 100 µM | > 100 µM | > 100 µM | > 100 µM | > 100 µM | > 100 µM |  |  |  |  |  |  | 
2 | CCOC1c2nc3ccccc3nc2-c2ccccc2N1C(C)=O (centres undefined) | > 100 µM | > 100 µM | > 100 µM | > 100 µM | > 100 µM | > 100 µM | > 100 µM | > 100 µM |  |  |  |  |  |  | 
3 | O=C(Nc1nc(=S)[nH][nH]1)C(=O)C(c1cnc2ccc([N+](=O)[O-])cc2n1)[N+](=O)[O-] (centres undefined) | > 100 µM | > 100 µM | > 100 µM | > 100 µM | > 100 µM | > 100 µM | > 100 µM | > 100 µM |  |  |  |  |  |  | 
4 | COC(=O)C1CCC(C)CC1=O (centres undefined) | > 100 µM | > 100 µM | > 100 µM | > 100 µM | > 100 µM | > 100 µM | > 100 µM | > 100 µM |  |  |  |  |  |  | 
5 | O=C([O-])c1ccc([I+]c2ccccc2)cc1 | > 100 µM | > 100 µM | > 100 µM | > 100 µM | > 100 µM | > 100 µM | > 100 µM | > 100 µM |  |  |  |  |  |  | 
6 | CCOC(=O)C1=C(C)N(NC(N)=O)C2(N)N(NC(N)=O)C(C)=C(C(=O)OCC)C12C#N (centres undefined) | > 100 µM | > 100 µM | > 100 µM | > 100 µM | > 100 µM | > 100 µM | > 100 µM | > 100 µM |  |  |  |  |  |  | 
7 | CNC(=O)OCc1nc(SSc2nc(COC(=O)NC)c(COC(=O)NC)n2C)n(C)c1COC(=O)NC | > 100 µM | > 100 µM | > 100 µM | > 100 µM | > 100 µM | > 100 µM | > 100 µM | > 100 µM |  |  |  |  |  |  | 
8 | CCCCCCCCCCCCCCCC(=O)OCC1OC(n2cc(F)c(=O)[nH]c2=O)C(NC(=O)OCc2ccccc2)C(O)C1O (centres undefined) | 38.9 µM | 30.9 µM | 73 µM | 31.5 µM | 35.2 µM | 32.5 µM | 33.4 µM | 31.1 µM |  |  |  |  |  |  | 
9 | CCc1c(OC(C)=O)c2c(NC3OC(COC(C)=O)C(OC(C)=O)C(OC(C)=O)C3OC(C)=O)nc(SC)nc2oc1=O (centres undefined) | > 100 µM | > 100 µM | > 100 µM | > 100 µM | > 100 µM | > 100 µM | > 100 µM | > 100 µM |  |  |  |  |  |  | 
10 | N#CC(C(=O)Nc1ccccc1)C1=C(Cl)C(=O)c2ccccc2C1=O (centres undefined) | > 100 µM | 28.8 µM | 50 µM | 35.5 µM | 26.9 µM | 36.5 µM | 41.7 µM | 30.3 µM |  |  |  |  |  |  | 
11 | CCCCCCCCCCCCCC(=O)O[C@H]1CC[C@H](NC(=O)[C@H](OC)[C@H](O)[C@@H](O)[C@H](O)/C=C/C(C)C)C(=O)N(C)C1 | 0.371 µM and 3.01 µM | 15 µM and > 23.8 µM | 15 µM and 5.48 µM | 15 µM and 3.94 µM | 15 µM and 8.93 µM | 15 µM and 3.03 µM | 0.817 µM |  | 0.00238 µM | 0.0126 µM | 0.00238 µM | 0.00238 µM | 0.0283 µM | 0.00238 µM | 0.0043 µM
